Data taken from US20160361365A1, “TREATMENT OF CNS DISEASE WITH ENCAPSULATED INDUCIBLE CHOROID PLEXUS CELLS” (Living Cell Technologies New Zealand Limited, priority 2015, published 2016).
Where a name gives a salt, the structure may show the parent alone.

How the values were obtained:
Assay type in all cases: cell-based, porcine
encapsulated CP = test: VEGF secretion by encapsulated CP cultured with or without inducers; conditions: 1000 CP-containing capsules, 24 hours at 37° C.; FIG. 3B
Procedure: To determine that certain inducers can increase the secretion of CSF components by CPs that have been encapsulated, 1000 CP-containing capsules were cultured in 24-well multi-well plate with or without various inducers including LiCl at 37° C. for 24 hours. Aliquots of supernatant fluids were collected and assayed for VEGF as described in EXAMPLE 1. Aliquots of the cell cultures were also collected for DNA quantification to determine the relative number of cells in each well as described in EXAMPLE 1.

[1] = tested on: CP clusters containing CP cells; test: RNA-Seq of CP clusters for genes encoding CSF components after exposure to inducing agent; conditions: 12 mM LiCl, 72 hours, vs controls; FIG. 8
Procedure: In a further experiment to identify genes for which the expression levels were altered in CP cells following contact with an inducing agent as provided herein, CP clusters (5×10^3 clusters/mL) containing CP cells, obtained from 12-13 day-old piglets and cultured in vitro for 20-22 days, were incubated for 72 hours in serum-free, phenol-free RPMI medium containing 10 mM nicotinamide in the absence (controls) or presence (inducing agent-treated) of 12 mM LiCl. Cell pellets were harvested and 0.25 ml of TRI™ Reagent (Catalog # T9424, Sigma-Aldrich Corporation, St. Louis, Mo.) was added to lyse the cells. The lysate was pipetted up and down approximately 10 times and stored at −80° C. until RNA-Seq analysis. […] Corresponding human genes encoding human CSF components were identified by established orthology analysis (Groenen et al., 2012 Nature 491(7424):393-8).

[2] = tested on: Choroid plexus (CP) cell clusters; test: Total antioxidant capacity (TAC) of culture supernatants of CP cell clusters exposed to candidate CP inducing agents (OxiSelect TAC assay); conditions: non-encapsulated CP clusters, 72 hours; FIG. 2
Procedure: Choroid plexus (CP) cell clusters comprising CP cells (5×10^3 clusters/mL) were prepared as described above in Example 1 but without encapsulation and cultured at 37° C. in a 5% CO2 incubator for 24 or 72 hours in vitro in 24-well ultra-low (cell) attachment plates, and culture supernatants were tested for total antioxidant capacity (TAC) using the OxiSelect™ TAC assay (Cat. No. STA-360, Cell Biolabs, Inc., San Diego, Calif.) according to the manufacturer's instructions. To avoid interference in the TAC assay from medium components, cultures were incubated in serum-free, phenol-free RPMI media supplemented with 10 mM nicotinamide. A panel of candidate CP inducing agents was also tested for effects on TAC elaboration by CP cells. Control wells that received the culture medium alone or with each candidate CP inducing agent, but no CP cell clusters, were also incubated and tested for TAC.

| Structure (SMILES) | VEGF secretion by encapsulated CP versus culture without inducers (encapsulated CP) | expression levels of porcine genes encoding known CSF components [1] | release of total antioxidant capacity (TAC) by CP cells [2] |
| --- | --- | --- | --- |
| COC1=C(OC)C(=O)C(CCCCCCCCCC[P+](c2ccccc2)(c2ccccc2)c2ccccc2)=C(C)C1=O [MitoQ, 10-(6′-ubiquinoyl) decyltriphenylphosphonium salt] | induced VEGF secretion by encapsulated CPs |  |  |
| [Cl-].[Li+] [LiCl, lithium chloride] | induced VEGF secretion by encapsulated CP above the level secreted by encapsulated CPs cultured without inducers | expression levels increased (FIG. 8A-E) or decreased (FIG. 8F-K) | promoted the release by CP cells of elevated TAC levels |
| O=C([O-])[O-].[Li+].[Li+] [lithium carbonate] | induced VEGF secretion by encapsulated CP above the level secreted by encapsulated CPs cultured without inducers |  |  |
| NCCS(=O)(=O)O [taurine, 2-aminoethanesulfonic acid] | induced VEGF secretion by encapsulated CPs |  |  |
